Patent US9723840B2 (SYNGENTA PARTICIPATIONS AG, priority 2013, dated 2017)

Tests used:
Assay type in all cases: in vivo
Alopecurus myosuroides [1] = assay: Pre-emergence herbicidal activity, ALOMY; conditions: 1000 g/Ha, pre-emergence spray, evaluated after 13 days, scale 0-5
Experimental: (§1) Seeds of a variety of test species were sown in standard soil in pots. After cultivation for one day (pre-emergence) under controlled conditions in a glasshouse (at 24/16° C., day/night; 14 hours light; 65% humidity), the plants were sprayed with an aqueous spray solution derived from the formulation of the technical active ingredient in acetone/water (50:50) solution containing 0.5% Tween 20 (polyoxyethelyene sorbitan monolaurate, CAS RN 9005-64-5). The test plants were then grown in a glasshouse under controlled conditions (at 24/16° C., day/night; 14 hours light; 65% humidity) and watered twice daily. After 13 days, the test was evaluated (5=total damage to plant; 0=no damage to plant).

Abutilon theophrasti [2] = assay: Pre-emergence herbicidal activity, ABUTH; design: key: 5=total damage to plant; 0=no damage to plant; conditions: 1000 g/Ha, pre-emergence spray, evaluated after 13 days, scale 0-5
Experimental: as §1

Setaria faberi [3] = assay: Pre-emergence herbicidal activity, SETFA; design: key: 5=total damage to plant; 0=no damage to plant; conditions: 1000 g/Ha, pre-emergence spray, evaluated after 13 days, scale 0-5
Experimental: as §1

Echinochloa crus-galli [4] = assay: Pre-emergence herbicidal activity, ECHCG; design: key: 5=total damage to plant; 0=no damage to plant; conditions: 1000 g/Ha, pre-emergence spray, evaluated after 13 days, scale 0-5
Experimental: as §1

Alopecurus myosuroides [5] = assay: Post-emergence herbicidal activity, ALOMY; design: key: 5=total damage to plant; 0=no damage to plant; conditions: 1000 g/Ha, post-emergence spray (8 days cultivation), evaluated after 13 days, scale 0-5
Experimental: (§2) Seeds of a variety of test species were sown in standard soil in pots. After 8 days cultivation (post-emergence) under controlled conditions in a glasshouse (at 24/16° C., day/night; 14 hours light; 65% humidity), the plants were sprayed with an aqueous spray solution derived from the formulation of the technical active ingredient in acetone/water (50:50) solution containing 0.5% Tween 20 (polyoxyethelyene sorbitan monolaurate, CAS RN 9005-64-5). The test plants were then grown in a glasshouse under controlled conditions (at 24/16° C., day/night; 14 hours light; 65% humidity) and watered twice daily. After 13 days, the test was evaluated (5=total damage to plant; 0=no damage to plant).

Setaria faberi [6] = assay: Post-emergence herbicidal activity, SETFA; design: key: 5=total damage to plant; 0=no damage to plant; conditions: 1000 g/Ha, post-emergence spray (8 days cultivation), evaluated after 13 days, scale 0-5
Experimental: as §2

Amaranthus retroflexus [7] = assay: Pre-emergence herbicidal activity, AMARE; design: key: 5=total damage to plant; 0=no damage to plant; conditions: 1000 g/Ha, pre-emergence spray, evaluated after 13 days, scale 0-5
Experimental: as §1

Zea mays [8] = assay: Pre-emergence herbicidal activity, ZEAMX; conditions: 1000 g/Ha, pre-emergence spray, evaluated after 13 days, scale 0-5
Experimental: as §1

Abutilon theophrasti [9] = assay: Post-emergence herbicidal activity, ABUTH; design: key: 5=total damage to plant; 0=no damage to plant; conditions: 1000 g/Ha, post-emergence spray (8 days cultivation), evaluated after 13 days, scale 0-5
Experimental: as §2

Echinochloa crus-galli [10] = assay: Post-emergence herbicidal activity, ECHCG; design: key: 5=total damage to plant; 0=no damage to plant; conditions: 1000 g/Ha, post-emergence spray (8 days cultivation), evaluated after 13 days, scale 0-5
Experimental: as §2

Amaranthus retroflexus [11] = assay: Post-emergence herbicidal activity, AMARE; design: key: 5=total damage to plant; 0=no damage to plant; conditions: 1000 g/Ha, post-emergence spray (8 days cultivation), evaluated after 13 days, scale 0-5
Experimental: as §2

Zea mays [12] = assay: Post-emergence herbicidal activity, ZEAMX; design: key: 5=total damage to plant; 0=no damage to plant; conditions: 1000 g/Ha, post-emergence spray (8 days cultivation), evaluated after 13 days, scale 0-5
Experimental: as §2

SMILES | ALOMY damage score, application pre-emergence (Alopecurus myosuroides [1]) | ABUTH damage score, application pre-emergence (Abutilon theophrasti [2]) | SETFA damage score, application pre-emergence (Setaria faberi [3]) | ECHCG damage score, application pre-emergence (Echinochloa crus-galli [4]) | ALOMY damage score, application post-emergence (Alopecurus myosuroides [5]) | SETFA damage score, application post-emergence (Setaria faberi [6]) | AMARE damage score, application pre-emergence (Amaranthus retroflexus [7]) | ZEAMX damage score, application pre-emergence (Zea mays [8]) | ABUTH damage score, application post-emergence (Abutilon theophrasti [9]) | ECHCG damage score, application post-emergence (Echinochloa crus-galli [10]) | AMARE damage score, application post-emergence (Amaranthus retroflexus [11]) | ZEAMX damage score, application post-emergence (Zea mays [12])
CCOC1C(O)N(c2cc(C(C)(C)F)c(Cl)nn2)C(=O)N1C (stereo not drawn) [Example A9, 1-[6-chloro-5-(1-fluoro-1-methyl-ethyl)pyridazin-3-yl]-4-ethoxy-5-hydroxy-3-methyl-imidazolidin-2-one] | 4 | 5 | 5 | 5 | 5 | 5 | 5 | 3 | 5 | 5 | 5 | 5
CON1C(=O)N(c2ccc(C(=O)NC(C)(C)C)nn2)C(O)C1C (stereo not drawn) [Example A14] | 4 | 5 | 4 | 4 | 5 | 5 | 5 | 2 | 5 | 5 | 5 | 5
CC1C(O)N(c2cc(C(C)(C)F)c(-c3ccccc3)nn2)C(=O)N1C (stereo not drawn) [Example A3] | 4 | 5 | 5 | 4 | 4 | 5 | 5 | 3 | 5 | 5 | 5 | 4
CC1C(O)N(c2ccc(C(=O)NC(C)(C)C)nn2)C(=O)N1C (stereo not drawn) [Example A15] | 4 | 5 | 4 | 5 | 5 | 5 | 5 | 3 | 5 | 5 | 5 | 5
CN1CC(O)N(c2cc(C(F)(F)F)c(Cl)nn2)C1=O (stereo not drawn) [Example A5, 3-[6-chloro-5-(trifluoromethyl)pyridazin-3-yl]-4-hydroxy-1-methyl-imidazolidin-2-one] | 4 | 5 | 5 | 4 | 4 | 5 | 5 | 2 | 5 | 5 | 5 | 4
CCOC1C(O)N(c2cc(C(C)(F)F)c(Cl)nn2)C(=O)N1C (stereo not drawn) [Example A10] | 4 | 5 | 5 | 4 | 5 | 5 | 5 | 4 | 5 | 5 | 5 | 4
CN1CC(O)N(c2cc(C(F)(F)F)cnn2)C1=O (stereo not drawn) [Example A7, 4-hydroxy-1-methyl-3-[5-(trifluoromethyl)pyridazin-3-yl]imidazolidin-2-one] | 4 | 5 | 5 | 5 | 5 | 5 | 5 | 2 | 5 | 5 | 5 | 5
CC1C(O)N(c2ccc(C(=O)NC(C)(C)C#N)nn2)C(=O)N1C (stereo not drawn) [Example A13] | 4 | 5 | 4 | 4 | 4 | 5 | 5 | 3 | 5 | 3 | 5 | 1
